Reference: patent publication US7622106B1, “Necrosis assay” (Board of Regents, The University of Texas System, priority 2009, dated 2009)

Key:
[1] = system: HT-29 cells; experiment: Smac mimetic plus pan-caspase inhibitor induced necrosis in HT-29 cells; assay type: cell-based, human; conditions: for cell death of HT-29 cells: Smac mimetic plus z-VAD or Q-VD-OPH co-treatment
Description: To verify that cell death seen in HT-29 cells was indeed necrosis, cells treated with either vehicle DMSO, or Smac mimetic plus z-VAD, were analyzed by electron microscopy (EM). […] No obvious apoptotic morphological changes were observed.
Since Smac mimetic induces apoptosis in certain tumor lines as a result of autocrine TNF-α (Petersen et al., 2007; Vince et al., 2007; Varfolomeev et al., 2007), we checked whether autocrine TNF-α is required for the observed necrosis in HT-29 cells. […] Moreover, exogenously added TNF-α augmented Smac mimetic plus z-VAD induced cell death and it did so in a dose dependent manner.

[2] = system: T98G cells; experiment: Necrosis induction in T98G cells ectopically expressing RIP3; assay type: cell-based, human; conditions: T98G cells expressing wild type RIP3, necrosis induction
Excerpt: Since cells resistant to TNF-α induced necrotic death are also defective in RIP3 expression, we then tested whether ectopic expression of RIP3 converts these cells to sensitive ones. When wild type RIP3 was expressed in T98G cells, we saw marked cell death in these cells upon necrosis induction compared to vector transfection controls. […] Moreover, T98G cell death resulted from RIP3 expression was blocked by the necrosis inhibitor, Necrostatin-1. Similar effects were observed when RIP3 was expressed in HeLa cells, MCF-7 cells, and H2009 cells.

[3] = target: RIP3/RIPK1 (Homo sapiens, UniProt Q13546); experiment: RIP3 up-shift and RIPK1 co-immunoprecipitation in HT-29 cells under necrosis induction; assay type: cell-based; conditions: co-treatment during necrosis induction (TNF-α, Smac mimetic, z-VAD)
Description: To test whether endogenous RIP3 indeed interacts with RIPK1 upon necrosis induction, we treated HT-29 cells with TNF-α, Smac mimetic and z-VAD, followed by immuno-precipitation using an anti-RIPK1 antibody at different time points. […] Correlating with the shift, RIP3 was found in the RIPK1 immuno-complex starting at 4 hours of necrosis induction and peaked at 8 hours. The up-shift of RIP3 and its interaction with RIPK1 only occurred under necrosis-inducing conditions. The observed up-shift of RIP3 is most likely due to phosphorylation that depends on its own kinase activity. […] Moreover, the RIP3 band can be shifted down to the original position on SDS-PAGE gel with phosphatase treatment.
To further confirm the relevance of RIP3 up-shift and its induced interaction with RIPK1 to necrosis, HT-29 cells were co-treated with Necrostatin-1 during necrosis induction.

[4] = target: RIPK1/FADD/caspase-8 complex (Homo sapiens, UniProt Q13546); experiment: Caspase-8 immunoprecipitation of RIPK1/FADD/caspase-8/RIP3 complex in HT-29 cells; assay type: cell-based; conditions: co-treatment, anti-caspase-8 immunoprecipitation
Description: Since RIPK1 forms a complex with caspase-8/FADD upon treatment with TNF-α plus Smac mimetic and the complex is stabilized with z-VAD (Petersen et al., 2007; Wang et al., 2008), we wondered whether it is the same complex that recruits RIP3. To check that directly, we immuno-precipitated caspase-8 and analyzed the composition of the immuno-complex by Western blotting. […] RIP3 continued to be recruited to the complex for up to 6 hours of treatment. Much less proteins were immuno-precipitated at 8 hours with this anti-caspase-8 antibody. This observation might reflect that a large percentage of cells were dying. […] This is consistent with the notion that Necrostatin-1 inhibits RIPK1 kinase activity, which is required for the formation of RIPK1/FADD/caspase-8 complex (Degterev et al., 2008; Wang et al., 2008).

[5] = target: T1, cIAP2 (Homo sapiens, UniProt Q13489); experiment: cIAP2 degradation upon Smac mimetic treatment in HT-29 cells; assay type: cell-based
T1 construct: endogenous in cells; host or cells: HT-29

[6] = system: L929 cells; experiment: Necrotic cell death in L929 cells; assay type: cell-based, mouse
Excerpt: TNF-α induced necrosis has been most extensively studied in mouse fibrosarcoma L929 cells due to its unique ability to undergo necrosis in response to TNF-α, or z-VAD alone (Grooten et al., 1993; Vercammen et al., 1998; Degterev et al., 2005; Kim et al., 2007). To test whether RIP3 is required for necrosis this L929 cells, we knocked down RIP3 with three individual mouse siRNA oligoes. Cell death induced by z-VAD, or TNF-α alone or combination of the two was attenuated when RIP3 was knocked down in L929 cells. The efficacy of necrosis blockage of these oligoes correlated perfectly with the efficiency of RIP3 knockdown.

[7] = system: certain tumor cell lines; conditions: cited from earlier work

Chain of RIP3/RIPK1 (Q13546 whole entry): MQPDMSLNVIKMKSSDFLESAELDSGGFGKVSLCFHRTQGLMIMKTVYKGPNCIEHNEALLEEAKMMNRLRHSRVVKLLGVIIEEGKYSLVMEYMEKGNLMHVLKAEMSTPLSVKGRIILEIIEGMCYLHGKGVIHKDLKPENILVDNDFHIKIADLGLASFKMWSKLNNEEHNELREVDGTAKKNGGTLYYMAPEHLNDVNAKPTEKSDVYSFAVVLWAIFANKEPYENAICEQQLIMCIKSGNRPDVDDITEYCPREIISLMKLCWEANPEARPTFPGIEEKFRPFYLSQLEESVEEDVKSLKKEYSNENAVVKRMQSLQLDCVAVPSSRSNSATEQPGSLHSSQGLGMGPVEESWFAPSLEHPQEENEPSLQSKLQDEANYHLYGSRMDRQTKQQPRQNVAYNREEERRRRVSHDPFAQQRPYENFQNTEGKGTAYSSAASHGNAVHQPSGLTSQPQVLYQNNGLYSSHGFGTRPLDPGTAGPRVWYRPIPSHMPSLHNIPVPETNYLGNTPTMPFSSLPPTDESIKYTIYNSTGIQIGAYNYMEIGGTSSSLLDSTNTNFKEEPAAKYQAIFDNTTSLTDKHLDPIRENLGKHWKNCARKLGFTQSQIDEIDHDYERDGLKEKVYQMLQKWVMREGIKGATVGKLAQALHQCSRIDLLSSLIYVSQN
T1 sequence (Q13489 whole entry): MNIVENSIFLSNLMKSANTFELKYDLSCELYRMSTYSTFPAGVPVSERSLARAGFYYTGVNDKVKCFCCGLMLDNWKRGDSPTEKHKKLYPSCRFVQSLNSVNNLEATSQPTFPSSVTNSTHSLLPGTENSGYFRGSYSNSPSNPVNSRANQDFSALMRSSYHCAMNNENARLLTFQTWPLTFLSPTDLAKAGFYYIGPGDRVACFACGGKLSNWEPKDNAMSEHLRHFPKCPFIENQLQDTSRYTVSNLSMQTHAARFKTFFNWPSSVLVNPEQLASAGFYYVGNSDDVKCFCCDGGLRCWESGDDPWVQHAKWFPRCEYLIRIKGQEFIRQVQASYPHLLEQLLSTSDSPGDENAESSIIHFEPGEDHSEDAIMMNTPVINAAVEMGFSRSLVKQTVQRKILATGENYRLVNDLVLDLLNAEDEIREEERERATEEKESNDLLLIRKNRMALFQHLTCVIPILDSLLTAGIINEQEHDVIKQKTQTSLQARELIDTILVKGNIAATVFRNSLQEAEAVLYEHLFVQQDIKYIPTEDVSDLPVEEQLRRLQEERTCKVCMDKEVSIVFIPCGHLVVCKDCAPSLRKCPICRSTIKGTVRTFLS
Chain of RIPK1/FADD/caspase-8 complex (Q13546 whole entry, one chain of several): as the sequence (Q13546 whole entry) above

CN1C(=O)C(Cc2c[nH]c3ccccc23)NC1=S (stereo not drawn) [Necrostatin-1]
effect on Smac mimetic plus z-VAD induced cell death ([1]; HT-29 cells, agent added to culture): cell death was prevented | effect on T98G cell death resulting from RIP3 expression [2]: blocked | RIP3 interaction with RIPK1 [3]: completely prevented | RIP3 up-shift [3]: completely prevented | formation of RIPK1/FADD/caspase-8 (RIP3) complexes [4]: none of these complexes were able to form efficiently

CN[C@@H](C)C(=O)N[C@H](C(=O)N1CCC[C@H]1Cn1nnnc1Sc1ccccc1)C(C)OCC#CC#CCO[C@H](C)[C@H](NC(=O)[C@H](C)NC)C(=O)N1CCCC1Cn1nnnc1Sc1ccccc1 (stereo partly drawn) [Smac mimetic]
cell death of HT-29 cells [1]: exacerbated cell death | cIAP2 degradation [5]: accelerated degradation | cell death in L929 cells [6]: accelerated cell death

Q-VD-OPH
cell death of HT-29 cells [1]: exacerbated cell death

TNF-α
effect of exogenously added TNF-α on Smac mimetic plus z-VAD induced cell death ([1]; HT-29 cells): augmented

z-VAD
cell death of HT-29 cells [1]: exacerbated cell death | effect on Smac mimetic induced apoptotic death [7]: completely blocked
